In ChEMBL document CHEMBL5356982, “Truncated derivatives of amphidinol 3 reveal the functional role of polyol chain in sterol-recognition and pore formation” (Bioorg Med Chem Lett, 2024):
Calls of active or inactive are those of the source. The calls are words filed in the database; no cut-off is given here.

How the values were obtained:
[1] = system: Aspergillus niger; test: Antifungal activity against Aspergillus niger NBRC 31012 assessed as inhibition zone incubated for 2 days by disk diffusion method; assay type: functional; settings: time 2 day
[2] = target: Lipid bilayer; test: Binding affinity to 10% Ergosterol containing DOPC liposomes assessed as dissociation constant for first step at 50 uM and measured from 300 to 600 sec by SPR method
[3] = target: Lipid bilayer; test: Binding affinity to 10% Ergosterol containing DOPC liposomes assessed as dissociation constant for second step at 50 uM and measured from 300 to 600 sec by SPR method
[4] = target: Lipid bilayer; test: Binding affinity to 10% Ergosterol containing DOPC liposomes assessed as dissociation constant at equilibrium at 50 uM and measured from 300 to 600 sec by SPR method
[5] = target: Lipid bilayer; test: Binding affinity to DOPC liposomes assessed as dissociation constant for first step at 50 uM and measured from 300 to 600 sec by SPR method
[6] = target: Lipid bilayer; test: Binding affinity to DOPC liposomes assessed as dissociation constant for second step at 50 uM and measured from 300 to 600 sec by SPR method
[7] = target: Lipid bilayer; test: Binding affinity to DOPC liposomes assessed as dissociation constant at equilibrium at 50 uM and measured from 300 to 600 sec by SPR method
[8] = system: Lipid bilayer; test: Induction of pore formation in 10% Ergosterol containing DOPC liposomes assessed as calcein dye leakage by measuring calcein fluorescence by fluorescence microplate reader analysis
[9] = system: Lipid bilayer; test: Induction of pore formation in DOPC liposomes assessed as calcein dye leakage by measuring calcein fluorescence at 27 uM by fluorescence microplate reader analysis
[10] = system: Lipid bilayer; test: Binding affinity to 10% Ergosterol containing DOPC liposomes at 50 uM and measured upto 600 sec by SPR method
[11] = system: Lipid bilayer; test: Binding affinity to DOPC liposomes at 50 uM and measured upto 600 sec by SPR method
[12] = system: Lipid bilayer; test: Induction of pore formation in 10% Ergosterol containing DOPC liposomes assessed as calcein dye leakage by measuring calcein fluorescence at 27 uM by fluorescence microplate reader analysis
[13] = system: Lipid bilayer; test: Induction of pore formation in 10% Ergosterol containing DOPC liposomes assessed as calcein dye leakage by measuring calcein fluorescence at 10 uM by fluorescence microplate reader analysis

MIC [1]	Activity [10]	Activity [11]	Activity [12]	step-2 equilibrium ratio [3]	Activity [13]	SMILES	Kd [2]	Kd [3]	Kd [4]	Kd [5]	Kd [6]	Kd [7]	EC50 [8]	Activity [9]
>300 µg	inactive	inactive	inactive	–	–	C=C/C=C/CC/C=C/C=C/C=C/CC/C=C/[C@H](O)[C@H](O)[C@@H]1O[C@@H]([C@H](O)[C@H](O)C(=C)CC[C@@H](O)[C@@H]2C[C@H](O)[C@H](O)[C@@H]([C@H](O)[C@@H](O)CO)O2)C[C@@H](O)[C@H]1O	–	–	–	–	–	–	–	–
20 µg	–	inactive	inactive	0.044	Active	C=C/C=C/CC/C=C/C=C/C=C/CC/C=C/[C@H](O)[C@H](O)[C@@H]1O[C@@H]([C@H](O)[C@H](O)C(=C)CC[C@@H](O)[C@@H]2C[C@H](O)[C@H](O)[C@@H]([C@H](O)[C@@H](O)/C=C(\C)CC[C@H](O)C[C@H](O)[C@H](O)[C@@H](C)CCO)O2)C[C@@H](O)[C@H]1O	25 µM	–	1 µM	–	–	–	–	–

SMILES	MIC [1]	Activity [10]	Activity [11]	Activity [12]	step-2 equilibrium ratio [3]	Activity [13]	Kd [2]	Kd [3]	Kd [4]	Kd [5]	Kd [6]	Kd [7]	EC50 [8]	Activity [9]
C=C/C=C/CC/C=C/C=C/C=C/CC/C=C/[C@H](O)[C@H](O)[C@@H]1O[C@@H]([C@H](O)[C@H](O)C(=C)CC[C@@H](O)[C@@H]2C[C@H](O)[C@H](O)[C@@H]([C@H](O)[C@@H](O)/C=C(\C)CC[C@H](O)C[C@H](O)[C@H](O)[C@@H](C)C[C@H](O)[C@@H](O)CCCCC[C@@H](O)CCC[C@@H](O)/C=C/C[C@@H](O)/C=C/C[C@@H](O)CO)O2)C[C@@H](O)[C@H]1O	8 µg	–	–	–	–	–	51 µM	2.4 µM	0.00012 µM	980 µM	6300 µM	6.9 µM	2.96 µM	Active
